The data set is described as follows: activity coefficient (dimensionless); of the first substance listed, at infinite dilution; xn = mol fraction of the nth substance listed. The following applies: Liquid, Chromatography, x1 = 0.

Numbers after ± are expanded uncertainties.

As for `Cc1ccccc1C` [1,2-dimethylbenzene] + C[n+]1ccn(CCO)c1.F[B-](F)(F)F, the activity coefficient (303.15 K) is 28.9 ± 3; the activity coefficient (313.15 K) came out at 28.2 ± 3; the activity coefficient (323.15 K) was found to be 27.7 ± 2.9; the activity coefficient (333.15 K) was found to be 27 ± 2.8; the activity coefficient (343.15 K) came to 26.5 ± 2.8; the activity coefficient (353.15 K) came out at 25.9 ± 2.7. Also, the activity coefficient (363.15 K) was 25.4 ± 2.7.

Consider `Cc1cccc(C)c1` [1,3-dimethylbenzene] + C[n+]1ccn(CCO)c1.F[B-](F)(F)F, for which the activity coefficient (303.15 K) is 37.2 ± 3.9; the activity coefficient (313.15 K) came to 36.3 ± 3.8; the activity coefficient (323.15 K) was 35.5 ± 3.7; the activity coefficient (333.15 K) turned out to be 34.7 ± 3.7; the activity coefficient (343.15 K) turned out to be 34 ± 3.6; the activity coefficient (353.15 K) is 33.2 ± 3.5. Besides, the activity coefficient (363.15 K) was determined as 32.5 ± 3.4.

Take `Cc1ccc(C)cc1` [1,4-dimethylbenzene] + C[n+]1ccn(CCO)c1.F[B-](F)(F)F: the activity coefficient (303.15 K) was found to be 35.4 ± 3.7; the activity coefficient (313.15 K) was 34.7 ± 3.6; the activity coefficient (323.15 K) was 33.9 ± 3.6; the activity coefficient (333.15 K) was 33.2 ± 3.5; the activity coefficient (343.15 K) was found to be 32.5 ± 3.4; the activity coefficient (353.15 K) amounted to 32 ± 3.4. Further, the activity coefficient (363.15 K) stood at 31.4 ± 3.3.

Consider `CC(C)CC(C)(C)C` [2,2,4-trimethylpentane] + C[n+]1ccn(CCO)c1.F[B-](F)(F)F, for which the activity coefficient runs as follows: (303.15 K) 412 ± 44; (313.15 K) 523 ± 55; (323.15 K) 731 ± 77; (333.15 K) 962 ± 100; (343.15 K) 1300 ± 140; (353.15 K) 1700 ± 180. For the same molecule, the activity coefficient (363.15 K) stood at 2310 ± 240.

For `c1ccccc1` [benzene] + C[n+]1ccn(CCO)c1.F[B-](F)(F)F, the activity coefficient is 9.13 ± 0.96 (303.15 K); 9.11 ± 0.96 (313.15 K); 9.1 ± 0.96 (323.15 K); 9.08 ± 0.95 (333.15 K); 9.06 ± 0.95 (343.15 K); 9.05 ± 0.95 (353.15 K). For the same molecule, the activity coefficient (363.15 K) came out at 9.04 ± 0.95.

`C1CCCCC1` [cyclohexane] + C[n+]1ccn(CCO)c1.F[B-](F)(F)F: the activity coefficient was 339 ± 36 (303.15 K); 418 ± 44 (313.15 K); 488 ± 52 (323.15 K); 593 ± 63 (333.15 K); 689 ± 73 (343.15 K); 803 ± 85 (353.15 K). Besides, the activity coefficient (363.15 K) came to 934 ± 99.

Turning to `C1=CCCCC1` [cyclohexene] + C[n+]1ccn(CCO)c1.F[B-](F)(F)F, the activity coefficient (303.15 K) is 123 ± 13; the activity coefficient (313.15 K) was 118 ± 12; the activity coefficient (323.15 K) came out at 114 ± 12; the activity coefficient (333.15 K) is 110 ± 12; the activity coefficient (343.15 K) came out at 106 ± 11; the activity coefficient (353.15 K) was found to be 103 ± 11. The activity coefficient (363.15 K) was 100 ± 11.

For the molecule `CCc1ccccc1` [ethylbenzene] + C[n+]1ccn(CCO)c1.F[B-](F)(F)F, the activity coefficient is, setting by setting: (303.15 K) 42.1 ± 4.4; (313.15 K) 40.6 ± 4.3; (323.15 K) 39 ± 4.1; (333.15 K) 37.9 ± 4; (343.15 K) 36.7 ± 3.9; (353.15 K) 35.9 ± 3.8. Besides, the activity coefficient (363.15 K) worked out at 35 ± 3.7.

For `CCCCCCC` [heptane] + C[n+]1ccn(CCO)c1.F[B-](F)(F)F, the activity coefficient is, setting by setting: (303.15 K) 620 ± 65; (313.15 K) 850 ± 90; (323.15 K) 1200 ± 130; (333.15 K) 1610 ± 170; (343.15 K) 2190 ± 230; (353.15 K) 2980 ± 310. The activity coefficient (363.15 K) was determined as 4220 ± 450.

`CC1CCCCC1` [methylcyclohexane] + C[n+]1ccn(CCO)c1.F[B-](F)(F)F: the activity coefficient (303.15 K) came out at 328 ± 35; the activity coefficient (313.15 K) came out at 373 ± 39; the activity coefficient (323.15 K) was 421 ± 44; the activity coefficient (333.15 K) was 486 ± 51; the activity coefficient (343.15 K) stood at 546 ± 58; the activity coefficient (353.15 K) came out at 611 ± 64. Under “363.15 K”, the activity coefficient is 677 ± 71.

For `CCCCCCCCC` [nonane] + C[n+]1ccn(CCO)c1.F[B-](F)(F)F, the activity coefficient by setting is: (303.15 K) 546 ± 58; (313.15 K) 564 ± 60; (323.15 K) 582 ± 61; (333.15 K) 599 ± 63; (343.15 K) 616 ± 65; (353.15 K) 633 ± 67. Further, the activity coefficient (363.15 K) came to 651 ± 69.

`CCCCCCCC` [octane] + C[n+]1ccn(CCO)c1.F[B-](F)(F)F: the activity coefficient (303.15 K) came out at 498 ± 52; the activity coefficient (313.15 K) was found to be 532 ± 56; the activity coefficient (323.15 K) was 574 ± 61; the activity coefficient (333.15 K) turned out to be 615 ± 65; the activity coefficient (343.15 K) stood at 659 ± 70; the activity coefficient (353.15 K) is 709 ± 75. Also, under “363.15 K”, the activity coefficient is 760 ± 80.

In the case of `C=Cc1ccccc1` [styrene] + C[n+]1ccn(CCO)c1.F[B-](F)(F)F, the activity coefficient (303.15 K) turned out to be 15.3 ± 1.6; the activity coefficient (313.15 K) was 15.1 ± 1.6; the activity coefficient (323.15 K) came to 14.8 ± 1.6; the activity coefficient (333.15 K) was found to be 14.6 ± 1.5; the activity coefficient (343.15 K) came to 14.4 ± 1.5; the activity coefficient (353.15 K) worked out at 14.2 ± 1.5. Also, the activity coefficient (363.15 K) turned out to be 14 ± 1.5.

As for `Cc1ccccc1` [toluene] + C[n+]1ccn(CCO)c1.F[B-](F)(F)F, the activity coefficient came to 18.3 ± 1.9 (303.15 K); 18 ± 1.9 (313.15 K); 17.7 ± 1.9 (323.15 K); 17.5 ± 1.8 (333.15 K); 17.3 ± 1.8 (343.15 K); 17.2 ± 1.8 (353.15 K). Also, the activity coefficient (363.15 K) stood at 16.9 ± 1.8.

For the origin of these results see the NIST ThermoML archive (doi:10.1021/je9002724).
